Test results published in ChEMBL document CHEMBL5291721, “A preclinical secondary pharmacology resource illuminates target-adverse drug reaction associations of marketed drugs” (Nat Commun, 2023).

What was measured:
Vasopressin V2 receptor = Vasopressin V2 receptor (Homo sapiens, UniProt P30518)
[1] = biological target: T1, 5-hydroxytryptamine receptor 1A (Homo sapiens, UniProt P08908); assay type: functional, cell-based
T1 sequence (P08908 whole entry): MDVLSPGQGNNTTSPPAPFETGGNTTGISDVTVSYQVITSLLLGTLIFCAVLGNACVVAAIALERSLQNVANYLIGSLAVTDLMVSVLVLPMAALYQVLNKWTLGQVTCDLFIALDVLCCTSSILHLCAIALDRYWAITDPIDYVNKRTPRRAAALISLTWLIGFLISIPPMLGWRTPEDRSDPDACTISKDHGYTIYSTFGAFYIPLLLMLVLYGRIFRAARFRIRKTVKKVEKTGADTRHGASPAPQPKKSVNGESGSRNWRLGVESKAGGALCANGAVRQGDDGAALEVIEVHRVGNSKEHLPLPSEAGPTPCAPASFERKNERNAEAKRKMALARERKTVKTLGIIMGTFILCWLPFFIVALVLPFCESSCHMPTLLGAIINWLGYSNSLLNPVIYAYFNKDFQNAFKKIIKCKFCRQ

Progesterone receptor = biological target: T2, Progesterone receptor (Homo sapiens, UniProt P06401); assay type: functional
T2 sequence (P06401 whole entry): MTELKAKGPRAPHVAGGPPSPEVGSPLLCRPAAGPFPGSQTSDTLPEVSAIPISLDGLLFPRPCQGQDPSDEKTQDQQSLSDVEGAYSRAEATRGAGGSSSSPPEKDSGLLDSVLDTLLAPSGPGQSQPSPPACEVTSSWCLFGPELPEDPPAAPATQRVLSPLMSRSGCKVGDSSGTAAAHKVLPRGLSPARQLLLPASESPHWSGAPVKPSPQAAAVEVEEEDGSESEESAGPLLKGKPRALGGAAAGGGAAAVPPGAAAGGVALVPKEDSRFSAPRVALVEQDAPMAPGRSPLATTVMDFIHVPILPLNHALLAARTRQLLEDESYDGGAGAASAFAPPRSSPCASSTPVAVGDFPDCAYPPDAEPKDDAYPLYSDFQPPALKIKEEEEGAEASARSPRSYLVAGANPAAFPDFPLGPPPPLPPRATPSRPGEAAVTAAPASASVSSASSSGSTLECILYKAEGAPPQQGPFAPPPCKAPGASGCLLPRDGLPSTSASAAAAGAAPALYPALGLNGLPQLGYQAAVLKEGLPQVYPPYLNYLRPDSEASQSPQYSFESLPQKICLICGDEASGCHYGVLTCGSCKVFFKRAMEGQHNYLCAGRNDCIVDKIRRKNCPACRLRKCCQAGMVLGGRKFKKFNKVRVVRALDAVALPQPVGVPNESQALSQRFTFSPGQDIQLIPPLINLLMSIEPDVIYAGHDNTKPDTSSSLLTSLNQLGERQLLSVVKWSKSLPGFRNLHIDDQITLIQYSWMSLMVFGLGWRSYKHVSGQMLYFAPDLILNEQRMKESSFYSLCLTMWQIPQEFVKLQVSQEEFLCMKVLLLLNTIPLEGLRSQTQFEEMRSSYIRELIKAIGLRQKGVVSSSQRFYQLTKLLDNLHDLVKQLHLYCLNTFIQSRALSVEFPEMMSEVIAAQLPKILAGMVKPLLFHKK

[2] = biological target: T3, Amine oxidase [flavin-containing] A (Homo sapiens, UniProt P21397); assay type: functional
T3 sequence (P21397 whole entry): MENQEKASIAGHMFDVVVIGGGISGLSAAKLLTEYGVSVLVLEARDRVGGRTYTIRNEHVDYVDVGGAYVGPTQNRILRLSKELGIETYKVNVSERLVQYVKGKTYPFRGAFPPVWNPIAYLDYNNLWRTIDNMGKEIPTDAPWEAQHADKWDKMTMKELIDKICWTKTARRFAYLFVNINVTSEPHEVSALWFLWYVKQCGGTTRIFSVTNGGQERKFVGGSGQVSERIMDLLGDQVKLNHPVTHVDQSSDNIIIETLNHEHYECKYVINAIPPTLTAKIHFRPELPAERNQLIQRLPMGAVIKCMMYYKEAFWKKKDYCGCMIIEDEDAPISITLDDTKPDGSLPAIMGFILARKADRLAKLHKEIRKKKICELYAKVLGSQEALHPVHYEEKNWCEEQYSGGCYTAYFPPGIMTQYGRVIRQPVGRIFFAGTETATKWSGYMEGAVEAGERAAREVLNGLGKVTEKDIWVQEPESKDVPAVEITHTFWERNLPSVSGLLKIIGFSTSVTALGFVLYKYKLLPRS

[3] = biological target: 5-hydroxytryptamine receptor 2B (Homo sapiens, UniProt P41595); assay type: functional, cell-based
[4] = biological target: T1, 5-hydroxytryptamine receptor 1A; assay type: functional, cell-based; remark: listed apart in the source
[5] = biological target: T4, Alpha-2C adrenergic receptor (Homo sapiens, UniProt P18825); assay type: functional
T4 sequence (P18825 whole entry): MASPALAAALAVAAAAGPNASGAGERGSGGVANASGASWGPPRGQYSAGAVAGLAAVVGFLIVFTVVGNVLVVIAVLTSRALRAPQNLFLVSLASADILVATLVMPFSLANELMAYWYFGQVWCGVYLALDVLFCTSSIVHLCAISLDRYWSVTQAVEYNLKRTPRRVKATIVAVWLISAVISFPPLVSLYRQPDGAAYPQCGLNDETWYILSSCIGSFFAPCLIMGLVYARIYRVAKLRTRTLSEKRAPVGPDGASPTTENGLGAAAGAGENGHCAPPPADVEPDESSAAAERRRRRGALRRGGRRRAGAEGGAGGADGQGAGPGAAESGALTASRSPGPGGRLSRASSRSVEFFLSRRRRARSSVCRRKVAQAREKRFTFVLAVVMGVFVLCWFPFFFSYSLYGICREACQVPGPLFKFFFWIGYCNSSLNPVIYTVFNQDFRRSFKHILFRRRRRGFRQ

[6] = biological target: Gamma-aminobutyric acid receptor subunit alpha-1 (Rattus norvegicus, UniProt P62813); assay type: functional
Further: assay procedure not described here.

Sequence of 5-hydroxytryptamine receptor 2B (P41595 whole entry): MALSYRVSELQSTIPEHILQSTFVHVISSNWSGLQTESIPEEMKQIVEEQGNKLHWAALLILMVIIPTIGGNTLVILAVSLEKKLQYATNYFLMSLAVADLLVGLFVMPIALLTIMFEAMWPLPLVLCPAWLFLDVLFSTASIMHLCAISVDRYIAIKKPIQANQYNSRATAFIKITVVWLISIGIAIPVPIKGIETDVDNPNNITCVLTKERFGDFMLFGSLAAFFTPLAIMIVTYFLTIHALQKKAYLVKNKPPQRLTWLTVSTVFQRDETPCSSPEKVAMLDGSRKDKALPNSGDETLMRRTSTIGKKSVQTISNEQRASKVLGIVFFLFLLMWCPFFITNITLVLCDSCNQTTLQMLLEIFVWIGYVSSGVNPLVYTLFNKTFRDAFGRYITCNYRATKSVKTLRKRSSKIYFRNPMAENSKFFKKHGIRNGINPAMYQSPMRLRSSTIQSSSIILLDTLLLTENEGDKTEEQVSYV
Sequence of Gamma-aminobutyric acid receptor subunit alpha-1 (P62813 whole entry): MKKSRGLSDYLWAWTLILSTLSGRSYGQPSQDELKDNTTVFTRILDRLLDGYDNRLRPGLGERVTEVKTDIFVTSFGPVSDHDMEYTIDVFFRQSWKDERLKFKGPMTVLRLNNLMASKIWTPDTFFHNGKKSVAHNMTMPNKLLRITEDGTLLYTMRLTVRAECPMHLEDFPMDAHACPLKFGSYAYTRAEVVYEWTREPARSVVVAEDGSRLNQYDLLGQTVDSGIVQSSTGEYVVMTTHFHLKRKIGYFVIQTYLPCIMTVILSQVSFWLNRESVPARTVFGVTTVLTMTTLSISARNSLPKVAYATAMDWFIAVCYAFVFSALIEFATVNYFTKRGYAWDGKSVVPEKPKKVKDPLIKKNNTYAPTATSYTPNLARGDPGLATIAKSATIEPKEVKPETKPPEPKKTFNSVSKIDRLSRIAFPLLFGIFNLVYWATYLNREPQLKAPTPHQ
Sequence of Vasopressin V2 receptor (P30518 whole entry): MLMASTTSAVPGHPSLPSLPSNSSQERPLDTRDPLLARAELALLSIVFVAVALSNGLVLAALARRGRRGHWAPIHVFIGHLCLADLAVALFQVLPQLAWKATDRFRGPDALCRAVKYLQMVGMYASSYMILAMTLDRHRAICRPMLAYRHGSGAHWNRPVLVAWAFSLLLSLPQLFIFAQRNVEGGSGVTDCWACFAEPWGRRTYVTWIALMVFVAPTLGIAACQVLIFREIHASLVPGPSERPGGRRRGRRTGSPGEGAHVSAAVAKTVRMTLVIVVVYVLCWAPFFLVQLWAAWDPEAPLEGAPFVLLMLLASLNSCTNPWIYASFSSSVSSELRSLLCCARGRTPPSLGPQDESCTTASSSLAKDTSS

Compound | AC50 (Vasopressin V2 receptor) | AC50 [1] | AC50 (Progesterone receptor) | AC50 [2] | AC50 [3] | AC50 [4] | AC50 [5] | AC50 [6]
O=C1C(O)=C([C@H]2CC[C@H](c3ccc(Cl)cc3)CC2)C(=O)c2ccccc21 [ATOVAQUONE] | > 30 µM | > 30 µM | > 30 µM | > 30 µM | > 30 µM | > 30 µM | > 30 µM | > 30 µM
COc1ccc(CCNCC(O)COc2cccc(C)c2)cc1OC (centres undefined) [BEVANTOLOL] | > 10 µM | – | > 10 µM | > 10 µM | > 10 µM | 1.2 µM | 9.4 µM | > 10 µM
Brc1c(NC2=NCCN2)ccc2nccnc12 [BRIMONIDINE] | > 30 µM | – | > 30 µM | > 30 µM | > 30 µM | 5 µM | – | > 30 µM
CC(CC1c2ccccc2CCc2ccccc21)CN(C)C (centres undefined) [BUTRIPTYLINE] | – | > 30 µM | – | > 30 µM | > 30 µM | – | 6.9 µM | > 30 µM
CC(C)(C)NCC(O)COc1cccc2c1CCC(=O)N2 (centres undefined) [CARTEOLOL] | > 10 µM | 8.8 µM | > 10 µM | > 10 µM | > 10 µM | > 10 µM | > 10 µM | > 10 µM
Nc1nc(Cl)nc2c1ncn2[C@H]1C[C@H](O)[C@@H](CO)O1 [CLADRIBINE] | > 30 µM | > 30 µM | > 30 µM | > 30 µM | > 30 µM | > 30 µM | > 30 µM | –
Clc1ccccc1C(c1ccccc1)(c1ccccc1)n1ccnc1 [CLOTRIMAZOLE] | – | > 10 µM | – | > 10 µM | > 10 µM | > 10 µM | – | > 10 µM
COc1ccc2c3c1O[C@H]1[C@@H](O)CC[C@H]4[C@@H](C2)N(C)CC[C@@]341 [DIHYDROCODEINE] | – | > 30 µM | – | > 30 µM | > 30 µM | > 30 µM | > 30 µM | > 30 µM
NC(=O)OCC(COC(N)=O)c1ccccc1 [FELBAMATE] | > 10 µM | > 10 µM | > 10 µM | > 10 µM | > 10 µM | > 10 µM | > 10 µM | > 10 µM
Fc1ccc(C(c2ccccc2)(c2ccccc2F)n2ccnc2)cc1 (centres undefined) [FLUTRIMAZOLE] | > 30 µM | – | > 30 µM | > 30 µM | > 30 µM | > 30 µM | > 30 µM | > 30 µM
Cc1c(OCC(F)(F)F)ccnc1C[S+]([O-])c1nc2ccccc2[nH]1 (centres undefined) [LANSOPRAZOLE] | > 30 µM | > 10 µM | – | > 10 µM | > 10 µM | > 10 µM | > 10 µM | > 10 µM
NC(=O)CN1CC(O)CC1=O (centres undefined) [OXIRACETAM] | > 30 µM | > 30 µM | > 30 µM | > 30 µM | > 30 µM | > 30 µM | > 30 µM | > 30 µM
Cc1cc(C(C)(C)C)c(O)c(C)c1CC1=NCCN1 [OXYMETAZOLINE] | – | – | > 30 µM | > 30 µM | 0.266 µM | 0.0094 µM | – | > 30 µM
C[C@H]1COc2c(C3(N)CC3)c(F)cc3c(=O)c(C(=O)O)cn1c23 [PAZUFLOXACIN] | > 10 µM | > 10 µM | – | > 10 µM | > 10 µM | > 10 µM | > 10 µM | > 10 µM
C[C@@H]1O[C@@H](O[C@@H]2C=C3CC[C@@H]4[C@H](CC[C@]5(C)[C@@H](c6ccc(=O)oc6)CC[C@]45O)[C@@]3(C)CC2)[C@H](O)[C@H](O)[C@H]1O [PROSCILLARIDIN] | > 30 µM | > 30 µM | > 30 µM | > 30 µM | > 30 µM | > 30 µM | > 30 µM | > 30 µM
CC/C(=C(\c1ccccc1)c1ccc(OCCN(C)C)cc1)c1ccccc1 [TAMOXIFEN] | – | > 10 µM | – | > 10 µM | > 10 µM | > 10 µM | > 10 µM | > 10 µM
C#C[C@]1(O)CC[C@H]2[C@@H]3[C@H](C)CC4=C(CCC(=O)C4)[C@H]3CC[C@@]21C [TIBOLONE] | > 30 µM | > 30 µM | 0.4 µM | > 30 µM | > 30 µM | > 30 µM | > 30 µM | 30 µM
COc1cccc(C2(O)CCCCC2CN(C)C)c1 (centres undefined) [TRAMADOL] | > 30 µM | > 10 µM | – | > 10 µM | > 10 µM | > 10 µM | > 10 µM | > 10 µM
Cc1nnc2n1-c1ccc(Cl)cc1C(c1ccccc1Cl)=NC2 [TRIAZOLAM] | > 30 µM | > 10 µM | – | > 10 µM | > 10 µM | > 10 µM | > 10 µM | 0.0011 µM
CC1(C)CCC(CN2CCN(c3ccc(C(=O)NS(=O)(=O)c4ccc(NCC5CCOCC5)c([N+](=O)[O-])c4)c(Oc4cnc5[nH]ccc5c4)c3)CC2)=C(c2ccc(Cl)cc2)C1 [VENETOCLAX] | – | – | > 30 µM | > 30 µM | – | – | 17 µM | –
THIMEROSAL | – | – | – | – | > 30 µM | – | – | –
